Measured values as given in PMC7400108, “Squalamine and Aminosterol Mimics Inhibit the Peptidoglycan Glycosyltransferase Activity of PBP1b” (Antibiotics, 2020).
Several values for one entry are separate records, joined by “and”; a condition that tells them apart may be missing. Identical values can stand only once. Entries after “also recorded” stand apart in the source; their conditions may differ. Like-named read-outs stand apart in the source and are kept apart here.

Tests used:
E. coli PBP1b [1] = biological target: T1, E. coli PBP1b (Escherichia coli, UniProt P02919); assay: GTase inhibition assay: residual activity and IC50 of PBP1b (radioactive lipid II endpoint TLC assay, dansyl-lipid II continuous fluorescence assay); assay type: biochemical; details: up to 5 mM (1-5 mM), below CMC
T1 construct: PBP1bγ(M46-N844) was purified as previously described; made in house
T1 sequence (P02919 46-844): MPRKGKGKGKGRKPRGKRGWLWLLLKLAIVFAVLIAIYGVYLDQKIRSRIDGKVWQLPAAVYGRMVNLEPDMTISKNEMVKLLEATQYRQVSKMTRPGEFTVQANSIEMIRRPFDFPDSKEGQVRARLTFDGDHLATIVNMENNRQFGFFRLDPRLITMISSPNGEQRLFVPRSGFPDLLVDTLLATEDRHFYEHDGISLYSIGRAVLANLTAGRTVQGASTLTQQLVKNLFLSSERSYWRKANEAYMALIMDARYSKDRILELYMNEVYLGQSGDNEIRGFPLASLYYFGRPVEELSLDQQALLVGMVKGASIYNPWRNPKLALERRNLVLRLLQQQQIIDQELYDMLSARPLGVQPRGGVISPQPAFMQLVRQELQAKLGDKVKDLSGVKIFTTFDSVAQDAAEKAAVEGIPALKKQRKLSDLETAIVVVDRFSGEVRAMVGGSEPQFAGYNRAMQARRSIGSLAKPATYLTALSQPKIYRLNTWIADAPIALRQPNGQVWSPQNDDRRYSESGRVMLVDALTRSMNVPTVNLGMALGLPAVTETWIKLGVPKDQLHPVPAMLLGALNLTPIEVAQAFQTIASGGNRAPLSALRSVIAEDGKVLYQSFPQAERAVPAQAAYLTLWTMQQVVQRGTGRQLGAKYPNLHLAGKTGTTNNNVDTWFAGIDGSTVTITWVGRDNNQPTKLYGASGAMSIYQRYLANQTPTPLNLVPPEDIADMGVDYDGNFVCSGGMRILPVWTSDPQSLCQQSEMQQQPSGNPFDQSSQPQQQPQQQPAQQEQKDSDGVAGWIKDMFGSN

E. coli PBP1b [2] = biological target: T1, E. coli PBP1b; assay: as above; assay type: biochemical; details: for RA % (0.4 mM), residual GTase activity of PBP1b: compound 0.4 mM (400 µM); for RA % (0.4 mM), residual GTase activity of PBP1b / RA % (0.8 mM), residual GTase activity of PBP1b / remaining activity at 800 µM: compared to nontreated control; for RA % (0.8 mM), residual GTase activity of PBP1b: compound 0.8 mM (800 µM); for remaining activity at 800 µM: read-out: RA % (0.8 mM), residual GTase activity of PBP1b, compound 0.8 mM (800 µM)
Procedure: The continuous fluorescence GTase activity assay of PBP1b was performed using dansyl lipid II as substrate as described.
The end-point assay, based on radiolabeled lipid II ([^14C]lipid II), was performed in 30 µL in the same conditions as the fluorescence assay using 4 µM [^14C]lipid II (0.06 µCi/nmol) instead of the fluorescent substrate and by omitting the muramidase. The reaction was incubated 15 min at 30 °C, stopped by heating at 80 °C for 10min and the products were separated by thin-layer chromatography (TLC) on silica gel plates in 2-propanol–ammonium hydroxide (25%)–H2O (6:3:1; v/v/v).
The GTase inhibition assay was carried out by measuring the residual activity (RA) of E. coli PBP1b in the presence of 400 and 800 μM compounds. All the assays were repeated at least three times. The IC50 values were determined for the active compounds using variable concentrations of inhibitor (0−1000 μM) by fitting the data using GraphPad Prism 6.0 software.

[3] = Fluorescence anisotropy direct binding of compounds to the probe in the absence of the protein; details: NBD-lipid II 0.33 µM, no protein
Procedure: (§1) FA assay was performed as previously described. Briefly, fixed concentrations of NBD-lipid II (0.33 µM) and PBP1b (~1 µM) in the 25 mM Tris–HCl pH 7.5, NaCl 0.1 M, CHAPS 0.14% w/v, were mixed with serial dilutions of the compounds in 384-well plates. Measurement were performed using an Infinite F Plex (Tecan, Männedorf, Switzerland) microplate reader equipped with polarization filters with excitation and emission wavelengths at 485 and 535 nm respectively. All the experiments were performed in triplicates. For direct binding evaluation of the compounds with the probe, the experiments were performed in the same condition in the absence of the protein. FA values in millianisotropy units (mA) were plotted as a function of compound concentrations in µM as previously described.

PBP1b = biological target: T2, PBP1b (Escherichia coli, UniProt P02919); assay: Fluorescence anisotropy competition assay, displacement of NBD-lipid II probe from PBP1b; assay type: binding; details: NBD-lipid II 0.33 µM, PBP1b ~1 µM, serial dilutions of compound
T2 construct: PBP1bγ(M46-N844) was purified as previously described; made in house
T2 sequence (P02919 46-844): as above
Procedure: as §1

E. coli = test system: E. coli; parameters: method as in PMID 31063379; details: cited from earlier work
S. aureus = test system: S. aureus; parameters: method as in PMID 31063379; details: cited from earlier work
[4] = mean of three experiments ± s.d.
[5] = variable inhibitor concentrations 0-1000 µM, mean of three experiments ± s.d., read-out: IC50, GTase activity of PBP1b

Molecule | RA % (0.4 mM), residual GTase activity of PBP1b (E. coli PBP1b [2]; [4]) [%] | IC50 (E. coli PBP1b [2]; [5]) [µM] | remaining activity at 800 µM (E. coli PBP1b [2]; [4]) [%] | Inhibition of GTase activity of PBP1b (in words) (E. coli PBP1b [2]; concentration not given) | further results
C[C@H](CCC(=O)NCCC[N+](C)(C)CCCS(=O)(=O)[O-])[C@H]1CCC2C3C(C[C@H](O)[C@@]21C)[C@@]1(C)CC[C@H](O)CC1C[C@H]3O (stereo partly drawn) [CHAPS] |  |  |  |  | Inhibition of PBP1b GTase activity (in words) (E. coli PBP1b [1]): no inhibition
CC(C)CCCC(C)C1CCC2C3C(NCCCCN)C=C4CC(O)CCC4(C)C3CCC12C (stereo not drawn) [Compound 2] | 1.2 ± 0.3 | 114 ± 6 |  |  | RA % (0.8 mM), residual GTase activity of PBP1b (E. coli PBP1b [2]; [4]): 0.3 ± 0.1%
CC(C)CCC[C@@H](C)[C@H]1CCC2C3C(CC[C@@]21C)[C@@]1(C)CC[C@H](O)CC1=C[C@@H]3NCCCNCCCCNCCCN (stereo partly drawn) [Compound 3] | 16 ± 2 | 220 ± 10 | 8.5 ± 3.1 |  | 
CC(C)CCC[C@@H](C)[C@H]1CCC2C3C(CC[C@@]21C)[C@@]1(C)CC[C@H](O)CC1C[C@@H]3NCCCN (stereo partly drawn) [Compound 4] | 39 ± 2 | 303 ± 15 | 4 ± 1 |  | 
CC(C)CCC[C@@H](C)[C@H]1CCC2C3C[C@@H](NCCCCN)C4C[C@@H](O)CC[C@]4(C)C3CC[C@@]21C (stereo partly drawn) [Compound 5, 6β-(1,4-diaminobutane)-cholestan-3β-ol] | 16 ± 1.4 | 221 ± 26 | 3 ± 1 |  | 
CC(C)CCC[C@@H](C)[C@H]1CCC2C3C[C@@H](NCCCNCCCCNCCCN)C4C[C@@H](O)CC[C@]4(C)C3CC[C@@]21C (stereo partly drawn) [Compound 6, 6β-(spermine)-cholestan-3β-ol] | 3.9 ± 0.1 |  | 0.8 ± 0.4 |  | IC50 (E. coli PBP1b [2]): 111 ± 6 µM; Direct interaction between fluorescent lipid II and compound (FA) [3]: no significant interaction; Competition with lipid II for binding to PBP1b (change of FA of the probe) (PBP1b): able to compete; also recorded: decrease of the FA
CC(C)CCCC(C)C1CCC2C3C(NCCCCN)C=C4CC(O)CCC4(C)C3CCC12C (stereo not drawn) [Compound 9] |  |  |  | almost inactive | RA % (0.8 mM), residual GTase activity of PBP1b (E. coli PBP1b [2]; [4]): 98% and 98 ± 1%
CC(=O)[C@H]1CC[C@H]2[C@@H]3CCC4=CC(=O)CC[C@]4(C)[C@H]3CC[C@]12C [Compound 12, progesterone, reference compound] |  |  | 98 ± 1 | do not inhibit | 
C[C@H](NCCCCN)[C@H]1CCC2C3CCC4=C[C@@H](NCCCCN)CC[C@]4(C)C3CC[C@@]21C (stereo partly drawn) [Compound 13] |  |  | 100 | absence of activity | Inhibition of GTase activity of PBP1b (in words) (E. coli PBP1b [2]; 0.8 mM compound, radioactive lipid II, endpoint TLC assay): inactive
C[C@]12CCC3c4ccc(O)cc4CCC3C1CC[C@@H]2NCCCCN (stereo partly drawn) [Compound 15, (13S,17S)-17-((4-aminobutyl)amino)-13-methyl-7,8,9,11,12,13,14,15,16,17-decahydro-6H-cyclopenta[a]phenanthren-3-ol] |  |  | 105 ± 3 | absence of activity | Direct interaction between fluorescent lipid II and compound (FA) [3]: no significant interaction; Competition with lipid II for binding to PBP1b (change of FA of the probe) (PBP1b): no effect; also recorded: does not affect the FA
CC(C)[C@@H](CC[C@@H](C)[C@H]1CC[C@H]2[C@@H]3[C@H](O)C[C@H]4C[C@@H](NCCCNCCCCN)CC[C@]4(C)[C@H]3CC[C@]12C)OS(=O)(=O)O [Squalamine (1), Squalamine] | 6 ± 2 | 291 ± 26 | 1.1 ± 0.6 |  | Direct interaction between fluorescent lipid II and compound (FA) [3]: no significant interaction; MIC (E. coli): ~ 3 µg/mL; MIC (S. aureus): ~ 3 µg/mL; Competition with lipid II for binding to PBP1b (change of FA of the probe) (PBP1b): able to compete; also recorded: decrease of the FA
N1,N1’-((3S,7R,10R,13R,17R)-10,13-dimethyl-17-((R)-5-methylhexan-2-yl)-tetradecahydro-1H-cyclopenta[a]phenanthrene-3,7-diyl)bis(pentane-1,5-diamine) [Compound 7] | 12.5 ± 4.4 | 229 ± 17 |  |  | RA % (0.8 mM), residual GTase activity of PBP1b (E. coli PBP1b [2]; [4]): 1.5 ± 0.8%
